The nature of assay [1]: In vitro inhibition of human platelet aggregation induced by alpha-thrombin (at a concentration of 0.15 nM).
A short description of assay [2]: In vitro inhibition of human platelet aggregation induced by SFLLRN-NH2 (at a concentration of 2 uM).

Take `COc1ccc(C[C@H](NC(=O)Nc2ccc3c(CN4CCCC4)cn(Cc4ccc(F)cc4)c3c2)C(=O)N[C@@H](CCCNC(=N)N)C(=O)NCc2ccccc2)cc1` [2-[2-{3-[1-(4-Fluoro-benzyl)-3-pyrrolidin-1-ylmethyl-1H-indol-6-yl]-ureido}-3-(4-methoxy-phenyl)-propionylamino]-5-guanidino-pentanoic acid benzylamide]: the IC50 in assay [1] stood at 2320 nM; in assay [2], 270 nM. Regarding `NC(=O)NCCCC(NC(=O)[C@H](Cc1ccc(F)c(F)c1)NC(=O)Nc1ccc2c(CN3CCCC3)cn(Cc3c(Cl)cccc3Cl)c2c1)C(=O)NCc1ccccc1` (stereo partly drawn) [2-[(S)-2-{3-[1-(2,6-Dichloro-benzyl)-3-pyrrolidin-1-ylmethyl-1H-indol-6-yl]-ureido}-3-(3,4-difluoro-phenyl)-propionylamino]-5-ureido-pentanoic acid benzylamide], inhibition in assay [2] was half-maximal at 300 nM (IC50). Same read-out and setting: under `NC(=O)CCC(NC(=O)[C@H](Cc1ccc(F)c(F)c1)NC(=O)Nc1ccc2c(CN3CCCC3)cn(Cc3c(Cl)cccc3Cl)c2c1)C(=O)NCc1ccccc1` (stereo partly drawn) [2-[(S)-2-{3-[1-(2,6-Dichloro-benzyl)-3-pyrrolidin-1-ylmethyl-1H-indol-6-yl]-ureido}-3-(3,4-difluoro-phenyl)-propionylamino]-pentanedioic acid 5-amide 1-benzylamide] stands 2000 nM. For `NCCC(NC(=O)[C@H](Cc1ccc(F)c(F)c1)NC(=O)Nc1ccc2c(CN3CCCC3)cn(Cc3c(Cl)cccc3Cl)c2c1)C(=O)NCc1ccccc1` (stereo partly drawn) [4-Amino-N-benzyl-2-[(S)-2-{3-[1-(2,6-dichloro-benzyl)-3-pyrrolidin-1-ylmethyl-1H-indol-6-yl]-ureido}-3-(3,4-difluoro-phenyl)-propionylamino]-butyramide], the values for the IC50 in assay [1] and in assay [2] were 340 nM and 160 nM, respectively. As to `N#Cc1ccc(C[C@H](NC(=O)Nc2ccc3c(CN4CCCC4)cn(Cc4c(Cl)cccc4Cl)c3c2)C(=O)N[C@@H](CCCNC(=N)N)C(=O)NCc2ccccc2)cc1` [(S)-2-((S)-3-(4-Cyano-phenyl)-2-{3-[1-(2,6-dichloro-benzyl)-3-pyrrolidin-1-ylmethyl-1H-indol-6-yl]-ureido}-propionylamino)-5-guanidino-pentanoic acid benzylamide], in assay [2], the IC50 was determined as 70 nM. Consider `Cc1ccccc1Cn1cc(CN2CCCC2)c2ccc(NC(=O)N[C@@H](Cc3ccc(C#N)cc3)C(=O)N[C@@H](CCCNC(=N)N)C(=O)NCc3ccccc3)cc21` [(S)-2-((S)-3-(4-Cyano-phenyl)-2-{3-[1-(2-methyl-benzyl)-3-pyrrolidin-1-ylmethyl-1H-indol-6-yl]-ureido}-propionylamino)-5-guanidino-pentanoic acid benzylamide], for which the values for the IC50 in assay [1] and in assay [2] were 620 nM and 600 nM, respectively. In the same order, the values of `COc1ccc(C[C@H](NC(=O)Nc2ccc3c(CN4CCCC4)cn(Cc4ccccc4Cl)c3c2)C(=O)N[C@@H](CCCNC(=N)N)C(=O)NCCCc2ccccc2)cc1` [(S)-2-[(S)-2-{3-[1-(2-Chloro-benzyl)-3-pyrrolidin-1-ylmethyl-1H-indol-6-yl]-ureido}-3-(4-methoxy-phenyl)-propionylamino]-5-guanidino-pentanoic acid (3-phenyl-propyl)-amide] are 2600 nM and 140 nM. For `COc1ccc(C[C@H](NC(=O)Nc2ccc3c(CN4CCCCC4)cn(Cc4ccc(F)cc4)c3c2)C(=O)N[C@@H](CCCNC(=N)N)C(=O)NCC2CCCCC2)cc1` [(S)-2-[(S)-2-{3-[1-(4-Fluoro-benzyl)-3-piperidin-1-ylmethyl-1H-indol-6-yl]-ureido}-3-(4-methoxy-phenyl)-propionylamino]-5-guanidino-pentanoic acid cyclohexylmethyl-amide], the IC50 in assay [2] came to 1000 nM. Turning to `COc1ccc(C[C@H](NC(=O)Nc2ccc3c(CN4CCCC4)cn(Cc4ccc(F)cc4)c3c2)C(=O)N[C@@H](CCCNC(=N)N)C(=O)NCCCc2ccccc2)cc1` [(S)-2-[(S)-2-{3-[1-(4-Fluoro-benzyl)-3-pyrrolidin-1-ylmethyl-1H-indol-6-yl]-ureido}-3-(4-methoxy-phenyl)-propionylamino]-5-guanidino-pentanoic acid (3-phenyl-propyl)-amide], the IC50 in assay [1] worked out at 8500 nM; in assay [2] it was 600 nM. `COc1ccc(C[C@H](NC(=O)Nc2ccc3c(CN4CCCC4)cn(Cc4ccc(F)cc4)c3c2)C(=O)N[C@@H](CCCNC(=N)N)C(=O)NCC2CCCCC2)cc1` [(S)-2-[(S)-2-{3-[1-(4-Fluoro-benzyl)-3-pyrrolidin-1-ylmethyl-1H-indol-6-yl]-ureido}-3-(4-methoxy-phenyl)-propionylamino]-5-guanidino-pentanoic acid cyclohexylmethyl-amide] showed an IC50 in assay [1] of 4400 nM. In assay [2], `COc1ccc(C[C@H](NC(=O)Nc2ccc3c(CN4CCC4)cn(Cc4ccc(F)cc4)c3c2)C(=O)N[C@@H](CCCNC(=N)N)C(=O)NCc2ccccc2)cc1` [(S)-2-[(S)-2-{3-[3-Azetidin-1-ylmethyl-1-(4-fluoro-benzyl)-1H-indol-6-yl]-ureido}-3-(4-methoxy-phenyl)-propionylamino]-5-guanidino-pentanoic acid benzylamide] gave an IC50 of 400 nM. In the case of `CCN(CC)Cc1cn(Cc2cccc(C)c2)c2cc(NC(=O)N[C@@H](Cc3ccc(OC)cc3)C(=O)N[C@@H](CCCNC(=N)N)C(=O)NCCCc3ccccc3)ccc12` [(S)-2-[(S)-2-{3-[3-Diethylaminomethyl-1-(3-methyl-benzyl)-1H-indol-6-yl]-ureido}-3-(4-methoxy-phenyl)-propionylamino]-5-guanidino-pentanoic acid (3-phenyl-propyl)-amide], the IC50 in assay [1] worked out at 1300 nM; in assay [2], 210 nM. For `CCN(CC)Cc1cn(Cc2ccc(F)cc2)c2cc(NC(=O)N[C@@H](Cc3ccc(OC)cc3)C(=O)N[C@@H](CCCNC(=N)N)C(=O)NCC3CCCCC3)ccc12` [(S)-2-[(S)-2-{3-[3-Diethylaminomethyl-1-(4-fluoro-benzyl)-1H-indol-6-yl]-ureido}-3-(4-methoxy-phenyl)-propionylamino]-5-guanidino-pentanoic acid cyclohexylmethyl-amide], the 50% inhibitory concentration (IC50) in assay [1] was determined as 11100 nM; in assay [2], 900 nM. With `NCCC[C@H](NC(=O)[C@H](Cc1ccc(F)c(F)c1)NC(=O)Nc1ccc2c(CN3CCCC3)cn(Cc3c(Cl)cccc3Cl)c2c1)C(=O)NCc1ccccc1` [(S)-5-Amino-2-[(S)-2-{3-[1-(2,6-dichloro-benzyl)-3-pyrrolidin-1-ylmethyl-1H-indol-6-yl]-ureido}-3-(3,4-difluoro-phenyl)-propionylamino]-pentanoic acid benzylamide], the IC50 in assay [2] worked out at 100 nM. `COc1ccc(C[C@H](NC(=O)Nc2ccc3c(CN4CCCCC4)cn(Cc4ccccc4C)c3c2)C(=O)N[C@@H](CCCNC(=N)N)C(=O)NCCCc2ccccc2)cc1` [(S)-5-Guanidino-2-((S)-3-(4-methoxy-phenyl)-2-{3-[1-(2-methyl-benzyl)-3-piperidin-1-ylmethyl-1H-indol-6-yl]-ureido}-propionylamino)-pentanoic acid (3-phenyl-propyl)-amide]: the IC50 in assay [1] stood at 4800 nM; in assay [2], 310 nM.

Take `COc1ccc(C[C@H](NC(=O)Nc2ccc3c(CN4CCCC4)cn(Cc4ccccc4C)c3c2)C(=O)N[C@@H](CCCNC(=N)N)C(=O)NCCCc2ccccc2)cc1` [(S)-5-Guanidino-2-((S)-3-(4-methoxy-phenyl)-2-{3-[1-(2-methyl-benzyl)-3-pyrrolidin-1-ylmethyl-1H-indol-6-yl]-ureido}-propionylamino)-pentanoic acid (3-phenyl-propyl)-amide]: the IC50 in assay [2] came to 200 nM.

With `COc1ccc(C[C@H](NC(=O)Nc2ccc3c(CN4CCCCC4)cn(Cc4cccc(C)c4)c3c2)C(=O)N[C@@H](CCCNC(=N)N)C(=O)NCC2CCCCC2)cc1` [(S)-5-Guanidino-2-((S)-3-(4-methoxy-phenyl)-2-{3-[1-(3-methyl-benzyl)-3-piperidin-1-ylmethyl-1H-indol-6-yl]-ureido}-propionylamino)-pentanoic acid cyclohexylmethyl-amide], the IC50 in assay [1] came to 11700 nM; in assay [2] it was 900 nM.

In turn, `COc1ccc(C[C@H](NC(=O)Nc2ccc3c(CN4CCCCC4)cn(Cc4ccc(OC(F)(F)F)cc4)c3c2)C(=O)N[C@@H](CCCNC(=N)N)C(=O)NCC2CCCCC2)cc1` [(S)-5-Guanidino-2-((S)-3-(4-methoxy-phenyl)-2-{3-[3-piperidin-1-ylmethyl-1-(4-trifluoromethoxy-benzyl)-1H-indol-6-yl]-ureido}-propionylamino)-pentanoic acid cyclohexylmethyl-amide] showed an IC50 in assay [1] of 36500 nM.

Turning to `COc1ccc(C[C@H](NC(=O)Nc2ccc3c(CN4CCCC4)cn(Cc4ccc(OC(F)(F)F)cc4)c3c2)C(=O)N[C@@H](CCCNC(=N)N)C(=O)NCC2CCCCC2)cc1` [(S)-5-Guanidino-2-((S)-3-(4-methoxy-phenyl)-2-{3-[3-pyrrolidin-1-ylmethyl-1-(4-trifluoromethoxy-benzyl)-1H-indol-6-yl]-ureido}-propionylamino)-pentanoic acid cyclohexylmethyl-amide], the IC50 in assay [2] was determined as 4800 nM. With `NCC(NC(=O)[C@H](Cc1ccc(F)c(F)c1)NC(=O)Nc1ccc2c(CN3CCCC3)cn(Cc3c(Cl)cccc3Cl)c2c1)C(=O)NCc1ccccc1` (stereo partly drawn) [(S)-N-(2-Amino-1-benzylcarbamoyl-ethyl)-2-{3-[1-(2,6-dichloro-benzyl)-3-pyrrolidin-1-ylmethyl-1H-indol-6-yl]-ureido}-3-(3,4-difluoro-phenyl)-propionamide], the half-maximal inhibitory concentration (IC50) in assay [2] was found to be 500 nM. For the compound `CSCCC(NC(=O)[C@H](Cc1ccc(F)c(F)c1)NC(=O)Nc1ccc2c(CN3CCCC3)cn(Cc3c(Cl)cccc3Cl)c2c1)C(=O)NCc1ccccc1` (stereo partly drawn) [N-Benzyl-2-[(S)-2-{3-[1-(2,6-dichloro-benzyl)-3-pyrrolidin-1-ylmethyl-1H-indol-6-yl]-ureido}-3-(3,4-difluoro-phenyl)-propionylamino]-4-methylsulfanyl-butyramide], the half-inhibitory concentration (IC50) in assay [2] was 400 nM. The IC50 values of the last two compounds are within 1.5-fold of each other.

Values taken from BindingDB's records for doi:10.1016/s0960-894x(01)00378-x (The R. W. Johnson Pharmaceutical Research Institute, 2001).
